Test system: MRC-9 cells
Test: Multiplex high-content viability assessment
Format: cell-based
Conditions: for Cell count normalized to cells treated with DMSO control / Cell count per well / Population Fragmented Nuclei (%) / Population Healthy Nuclei (%) / Population Pyknosed Nuclei (%) / Population apoptotic cell (%) / Population cell that influence microtubule strucutre (%) / Population with increased mitochondrial mass (%) / Population with membrane disruption (%): human fibroblast
Summary of the method: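 HEK293T and U2OS cells (DMEM) and MRC-9 fibroblasts (EMEM) exposed to compounds at 1 and 10 μM. Live-cell confocal imaging of cell shape and fluorescence before and at 12, 24 and 48 h. Normalized to 0.1% DMSO; biological duplicates with SEM.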

CN1C(=O)[C@@H](N2CCc3c(nn(Cc4ccccc4)c3C(N)=O)C2=O)COc2cc(Cl)ccc21 [Compound 10, (S)-2-benzyl-6-(8-chloro-5-methyl-4-oxo-2,3,4,5-tetrahydrobenzo[b][1,4]oxazepin-3-yl)-7-oxo-4,5,6,7-tetrahydro-2H-pyrazolo[3,4-c]pyridine-3-carboxamide]
Cell count normalized to cells treated with DMSO control (1 µM, 0 h, replicate 1): 0.9542
Cell count per well (1 µM, 0 h, replicate 1): 143
Population Fragmented Nuclei (%) (1 µM, 0 h, replicate 1): 19.86%
Population Healthy Nuclei (%) (1 µM, 0 h, replicate 1): 56.74%
Population Pyknosed Nuclei (%) (1 µM, 0 h, replicate 1): 23.40%
Population apoptotic cell (%) (1 µM, 0 h, replicate 1): 42.42%
Population cell that influence microtubule strucutre (%) (1 µM, 0 h, replicate 1): 27.50%
Population with increased mitochondrial mass (%) (1 µM, 0 h, replicate 1): 11.25%
Population with membrane disruption (%) (1 µM, 0 h, replicate 1): 1.25%
Cell count normalized to cells treated with DMSO control (1 µM, 0 h, replicate 2): 1.071
Cell count per well (1 µM, 0 h, replicate 2): 191
Population Fragmented Nuclei (%) (1 µM, 0 h, replicate 2): 17.68%
Population Healthy Nuclei (%) (1 µM, 0 h, replicate 2): 56.35%
Population Pyknosed Nuclei (%) (1 µM, 0 h, replicate 2): 25.97%
Population apoptotic cell (%) (1 µM, 0 h, replicate 2): 19.15%
Population cell that influence microtubule strucutre (%) (1 µM, 0 h, replicate 2): 32.35%
Population with increased mitochondrial mass (%) (1 µM, 0 h, replicate 2): 4.90%
Population with membrane disruption (%) (1 µM, 0 h, replicate 2): 4.90%
Cell count normalized to cells treated with DMSO control (1 µM, 12 h, replicate 1): 0.9165
Cell count per well (1 µM, 12 h, replicate 1): 138
Population Fragmented Nuclei (%) (1 µM, 12 h, replicate 1): 13.43%
Population Healthy Nuclei (%) (1 µM, 12 h, replicate 1): 56.72%
Population Pyknosed Nuclei (%) (1 µM, 12 h, replicate 1): 29.85%
Population apoptotic cell (%) (1 µM, 12 h, replicate 1): 55.00%
Population cell that influence microtubule strucutre (%) (1 µM, 12 h, replicate 1): 31.58%
Population with increased mitochondrial mass (%) (1 µM, 12 h, replicate 1): 3.95%
Population with membrane disruption (%) (1 µM, 12 h, replicate 1): 0.00%
Cell count normalized to cells treated with DMSO control (1 µM, 12 h, replicate 2): 1.033
Cell count per well (1 µM, 12 h, replicate 2): 172
Population Fragmented Nuclei (%) (1 µM, 12 h, replicate 2): 18.52%
Population Healthy Nuclei (%) (1 µM, 12 h, replicate 2): 51.23%
Population Pyknosed Nuclei (%) (1 µM, 12 h, replicate 2): 30.25%
Population apoptotic cell (%) (1 µM, 12 h, replicate 2): 36.73%
Population cell that influence microtubule strucutre (%) (1 µM, 12 h, replicate 2): 48.19%
Population with increased mitochondrial mass (%) (1 µM, 12 h, replicate 2): 3.61%
Population with membrane disruption (%) (1 µM, 12 h, replicate 2): 9.64%
Cell count normalized to cells treated with DMSO control (1 µM, 24 h, replicate 1): 0.9086
Cell count per well (1 µM, 24 h, replicate 1): 137
Population Fragmented Nuclei (%) (1 µM, 24 h, replicate 1): 12.03%
Population Healthy Nuclei (%) (1 µM, 24 h, replicate 1): 64.66%
Population Pyknosed Nuclei (%) (1 µM, 24 h, replicate 1): 23.31%
Population apoptotic cell (%) (1 µM, 24 h, replicate 1): 64.52%
Population cell that influence microtubule strucutre (%) (1 µM, 24 h, replicate 1): 32.56%
Population with increased mitochondrial mass (%) (1 µM, 24 h, replicate 1): 8.14%
Population with membrane disruption (%) (1 µM, 24 h, replicate 1): 2.33%
Cell count normalized to cells treated with DMSO control (1 µM, 24 h, replicate 2): 1.049
Cell count per well (1 µM, 24 h, replicate 2): 173
Population Fragmented Nuclei (%) (1 µM, 24 h, replicate 2): 26.25%
Population Healthy Nuclei (%) (1 µM, 24 h, replicate 2): 51.25%
Population Pyknosed Nuclei (%) (1 µM, 24 h, replicate 2): 22.50%
Population apoptotic cell (%) (1 µM, 24 h, replicate 2): 47.22%
Population cell that influence microtubule strucutre (%) (1 µM, 24 h, replicate 2): 46.34%
Population with increased mitochondrial mass (%) (1 µM, 24 h, replicate 2): 3.66%
Population with membrane disruption (%) (1 µM, 24 h, replicate 2): 8.54%
Cell count normalized to cells treated with DMSO control (1 µM, 48 h, replicate 1): 0.9623
Cell count per well (1 µM, 48 h, replicate 1): 146
Population Fragmented Nuclei (%) (1 µM, 48 h, replicate 1): 16.91%
Population Healthy Nuclei (%) (1 µM, 48 h, replicate 1): 63.97%
Population Pyknosed Nuclei (%) (1 µM, 48 h, replicate 1): 19.12%
Population apoptotic cell (%) (1 µM, 48 h, replicate 1): 76.92%
Population cell that influence microtubule strucutre (%) (1 µM, 48 h, replicate 1): 25.29%
Population with increased mitochondrial mass (%) (1 µM, 48 h, replicate 1): 4.60%
Population with membrane disruption (%) (1 µM, 48 h, replicate 1): 1.15%
Cell count normalized to cells treated with DMSO control (1 µM, 48 h, replicate 2): 1.056
Cell count per well (1 µM, 48 h, replicate 2): 172
Population Fragmented Nuclei (%) (1 µM, 48 h, replicate 2): 23.95%
Population Healthy Nuclei (%) (1 µM, 48 h, replicate 2): 59.28%
Population Pyknosed Nuclei (%) (1 µM, 48 h, replicate 2): 16.77%
Population apoptotic cell (%) (1 µM, 48 h, replicate 2): 75.00%
Population cell that influence microtubule strucutre (%) (1 µM, 48 h, replicate 2): 54.55%
Population with increased mitochondrial mass (%) (1 µM, 48 h, replicate 2): 5.05%
Population with membrane disruption (%) (1 µM, 48 h, replicate 2): 7.07%
cytotoxicity (1 μM, MRC-9): no cytotoxicity
Cell count normalized to cells treated with DMSO control (10 µM, 0 h, replicate 1): 1.081
Cell count per well (10 µM, 0 h, replicate 1): 162
Population Fragmented Nuclei (%) (10 µM, 0 h, replicate 1): 15.72%
Population Healthy Nuclei (%) (10 µM, 0 h, replicate 1): 65.41%
Population Pyknosed Nuclei (%) (10 µM, 0 h, replicate 1): 18.87%
Population apoptotic cell (%) (10 µM, 0 h, replicate 1): 33.33%
Population cell that influence microtubule strucutre (%) (10 µM, 0 h, replicate 1): 22.12%
Population with increased mitochondrial mass (%) (10 µM, 0 h, replicate 1): 9.62%
Population with membrane disruption (%) (10 µM, 0 h, replicate 1): 0.96%
Cell count normalized to cells treated with DMSO control (10 µM, 0 h, replicate 2): 0.8971
Cell count per well (10 µM, 0 h, replicate 2): 160
Population Fragmented Nuclei (%) (10 µM, 0 h, replicate 2): 22.07%
Population Healthy Nuclei (%) (10 µM, 0 h, replicate 2): 49.66%
Population Pyknosed Nuclei (%) (10 µM, 0 h, replicate 2): 28.28%
Population apoptotic cell (%) (10 µM, 0 h, replicate 2): 34.15%
Population cell that influence microtubule strucutre (%) (10 µM, 0 h, replicate 2): 44.44%
Population with increased mitochondrial mass (%) (10 µM, 0 h, replicate 2): 9.72%
Population with membrane disruption (%) (10 µM, 0 h, replicate 2): 5.56%
Cell count normalized to cells treated with DMSO control (10 µM, 12 h, replicate 1): 1.162
Cell count per well (10 µM, 12 h, replicate 1): 175
Population Fragmented Nuclei (%) (10 µM, 12 h, replicate 1): 18.93%
Population Healthy Nuclei (%) (10 µM, 12 h, replicate 1): 60.36%
Population Pyknosed Nuclei (%) (10 µM, 12 h, replicate 1): 20.71%
Population apoptotic cell (%) (10 µM, 12 h, replicate 1): 48.57%
Population cell that influence microtubule strucutre (%) (10 µM, 12 h, replicate 1): 53.92%
Population with increased mitochondrial mass (%) (10 µM, 12 h, replicate 1): 8.82%
Population with membrane disruption (%) (10 µM, 12 h, replicate 1): 1.96%
Cell count normalized to cells treated with DMSO control (10 µM, 12 h, replicate 2): 0.8225
Cell count per well (10 µM, 12 h, replicate 2): 137
Population Fragmented Nuclei (%) (10 µM, 12 h, replicate 2): 27.87%
Population Healthy Nuclei (%) (10 µM, 12 h, replicate 2): 49.18%
Population Pyknosed Nuclei (%) (10 µM, 12 h, replicate 2): 22.95%
Population apoptotic cell (%) (10 µM, 12 h, replicate 2): 25.00%
Population cell that influence microtubule strucutre (%) (10 µM, 12 h, replicate 2): 60.00%
Population with increased mitochondrial mass (%) (10 µM, 12 h, replicate 2): 5.00%
Population with membrane disruption (%) (10 µM, 12 h, replicate 2): 3.33%
Cell count normalized to cells treated with DMSO control (10 µM, 24 h, replicate 1): 1.1009
Cell count per well (10 µM, 24 h, replicate 1): 166
Population Fragmented Nuclei (%) (10 µM, 24 h, replicate 1): 25.32%
Population Healthy Nuclei (%) (10 µM, 24 h, replicate 1): 55.06%
Population Pyknosed Nuclei (%) (10 µM, 24 h, replicate 1): 19.62%
Population apoptotic cell (%) (10 µM, 24 h, replicate 1): 54.84%
Population cell that influence microtubule strucutre (%) (10 µM, 24 h, replicate 1): 45.98%
Population with increased mitochondrial mass (%) (10 µM, 24 h, replicate 1): 10.34%
Population with membrane disruption (%) (10 µM, 24 h, replicate 1): 1.15%
Cell count normalized to cells treated with DMSO control (10 µM, 24 h, replicate 2): 0.8977
Cell count per well (10 µM, 24 h, replicate 2): 148
Population Fragmented Nuclei (%) (10 µM, 24 h, replicate 2): 34.56%
Population Healthy Nuclei (%) (10 µM, 24 h, replicate 2): 47.06%
Population Pyknosed Nuclei (%) (10 µM, 24 h, replicate 2): 18.38%
Population apoptotic cell (%) (10 µM, 24 h, replicate 2): 40.00%
Population cell that influence microtubule strucutre (%) (10 µM, 24 h, replicate 2): 65.63%
Population with increased mitochondrial mass (%) (10 µM, 24 h, replicate 2): 9.38%
Population with membrane disruption (%) (10 µM, 24 h, replicate 2): 1.56%
Cell count normalized to cells treated with DMSO control (10 µM, 48 h, replicate 1): 1.1403
Cell count per well (10 µM, 48 h, replicate 1): 173
Population Fragmented Nuclei (%) (10 µM, 48 h, replicate 1): 22.56%
Population Healthy Nuclei (%) (10 µM, 48 h, replicate 1): 61.59%
Population Pyknosed Nuclei (%) (10 µM, 48 h, replicate 1): 15.85%
Population apoptotic cell (%) (10 µM, 48 h, replicate 1): 84.62%
Population cell that influence microtubule strucutre (%) (10 µM, 48 h, replicate 1): 40.59%
Population with increased mitochondrial mass (%) (10 µM, 48 h, replicate 1): 5.94%
Population with membrane disruption (%) (10 µM, 48 h, replicate 1): 0.00%
Cell count normalized to cells treated with DMSO control (10 µM, 48 h, replicate 2): 0.9149
Cell count per well (10 µM, 48 h, replicate 2): 149
Population Fragmented Nuclei (%) (10 µM, 48 h, replicate 2): 33.82%
Population Healthy Nuclei (%) (10 µM, 48 h, replicate 2): 56.62%
Population Pyknosed Nuclei (%) (10 µM, 48 h, replicate 2): 9.56%
Population apoptotic cell (%) (10 µM, 48 h, replicate 2): 46.15%
Population cell that influence microtubule strucutre (%) (10 µM, 48 h, replicate 2): 61.04%
Population with increased mitochondrial mass (%) (10 µM, 48 h, replicate 2): 6.49%
Population with membrane disruption (%) (10 µM, 48 h, replicate 2): 2.60%
impact on tubulin, mitochondrial mass, and cellular permeability in healthy cells (MRC-9, 1 μM (Figure 6)): comparable to that of the 0.1% DMSO control

Source: article PMC12090182, “Repurposing of the RIPK1-Selective Benzo[1,4]oxazepin-4-one Scaffold for the Development of a Type III LIMK1/2 Inhibitor” (ACS Chemical Biology, 2025)
